For data set [1], the target named is T1, CYP 1A2 (Homo sapiens, UniProt P05177).
T1 sequence (P05177 1-516): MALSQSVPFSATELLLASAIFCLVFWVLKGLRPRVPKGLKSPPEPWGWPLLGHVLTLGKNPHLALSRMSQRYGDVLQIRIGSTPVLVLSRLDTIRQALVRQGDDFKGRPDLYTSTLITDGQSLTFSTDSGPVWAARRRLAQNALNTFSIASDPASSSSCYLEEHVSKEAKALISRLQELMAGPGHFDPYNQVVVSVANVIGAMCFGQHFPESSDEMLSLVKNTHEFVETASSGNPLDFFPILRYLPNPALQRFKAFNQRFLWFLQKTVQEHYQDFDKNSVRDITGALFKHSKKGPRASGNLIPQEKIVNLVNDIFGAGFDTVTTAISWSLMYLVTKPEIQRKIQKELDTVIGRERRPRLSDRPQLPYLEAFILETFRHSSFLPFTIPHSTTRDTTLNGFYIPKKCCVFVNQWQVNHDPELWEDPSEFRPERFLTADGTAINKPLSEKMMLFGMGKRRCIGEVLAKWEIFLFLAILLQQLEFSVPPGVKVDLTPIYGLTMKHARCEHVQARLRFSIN
Set-up: method as in PMID 23177787. The note with it: Figure 1; read-out: Cyp P450 Inhibition (1A2); cited from earlier work.

Data set [2] has as its target T2, CYP 2D6 (Homo sapiens, UniProt P10635). Also on record: method as in PMID 23177787. Particulars: Figure 1; read-out: Cyp P450 Inhibition (2D6); cited from earlier work.
Data set [3] addresses T3, CYP 2C9 (Homo sapiens, UniProt P11712). Set-up: method as in PMID 23177787. The note with it: Figure 1; read-out: Cyp P450 Inhibition (2C9); cited from earlier work.
On the set-up of data set [4]: method as in PMID 18772318, PMID 24442096, PMID 34710625. The note with it: rat; Figure 1, earlier M4 PAMs; cited from earlier work.
On the set-up of data set [5]: method as in PMID 18772318, PMID 24442096, PMID 34710625. Particulars: Figure 1, earlier M4 PAMs; cited from earlier work.
Details of data set [6]: method as in PMID 18772318, PMID 24442096, PMID 34710625. Particulars: rat brain; Figure 1, earlier M4 PAMs; cited from earlier work.
Details of data set [7]: method as in PMID 18772318, PMID 24442096, PMID 34710625. Particulars: human; Figure 1, earlier M4 PAMs; cited from earlier work.
The nature of data set [8]: Binding in plasma from human, equilibrium dialysis. It is filed as in vitro ADME. The note with it: human, plasma, read-out: human fu,plasma. For orientation: In equilibrium dialysis only unbound substance equilibrates across the membrane.
Data set [9] deals with T1, CYP 1A2. In words: CYP450 inhibition in pooled human liver microsomes, CYP-specific probe substrates. It is filed as in vitro ADME. The note with it: pooled HLM, NADPH, CYP-specific probe substrate.
Data set [10] can be described thus: Intrinsic clearance in human liver microsomes (substrate depletion), predicted hepatic clearance. Particulars: for CLint scaled at 1 µM: pH 7.4, human liver microsomes; for CLhep, human (predicted hepatic clearance): predicted from human microsomal CLint. The data set is classed as in vitro ADME.
Data set [11] concerns the target T3, CYP 2C9. Description: CYP450 inhibition in pooled human liver microsomes, CYP-specific probe substrates. It is filed as in vitro ADME. The note with it: pooled HLM, NADPH, CYP-specific probe substrate. On the technique in general: Liver microsomes are a subcellular fraction often used to study metabolism.
The target in another data set is CYP 3A4 (Homo sapiens, UniProt P08684). The description is as above. The data set is classed as in vitro ADME. Particulars: pooled HLM, NADPH, CYP-specific probe substrate.
Chain of CYP 3A4 (P08684 whole entry): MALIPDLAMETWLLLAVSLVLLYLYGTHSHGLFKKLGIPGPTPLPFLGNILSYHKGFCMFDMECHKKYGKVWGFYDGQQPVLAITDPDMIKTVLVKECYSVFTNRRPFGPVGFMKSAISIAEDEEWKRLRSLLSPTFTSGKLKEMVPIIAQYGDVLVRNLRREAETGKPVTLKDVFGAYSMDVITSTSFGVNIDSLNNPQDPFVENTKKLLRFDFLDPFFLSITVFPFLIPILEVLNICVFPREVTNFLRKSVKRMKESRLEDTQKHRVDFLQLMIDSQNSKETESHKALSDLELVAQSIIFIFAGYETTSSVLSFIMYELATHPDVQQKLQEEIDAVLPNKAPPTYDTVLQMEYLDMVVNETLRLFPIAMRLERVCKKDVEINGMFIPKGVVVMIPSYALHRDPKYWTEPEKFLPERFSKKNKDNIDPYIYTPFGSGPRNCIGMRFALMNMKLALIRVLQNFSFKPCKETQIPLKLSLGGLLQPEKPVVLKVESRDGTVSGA
Data set [12] in a line: Binding in plasma from rat, equilibrium dialysis. The data set is classed as in vitro ADME. The note with it: read-out: rat fu,plasma.
The next data set has as its target T4, human M2 (hM2) (Homo sapiens, UniProt P08172).
T4 construct: expressed in transfected cells
T4 sequence (P08172 1-466): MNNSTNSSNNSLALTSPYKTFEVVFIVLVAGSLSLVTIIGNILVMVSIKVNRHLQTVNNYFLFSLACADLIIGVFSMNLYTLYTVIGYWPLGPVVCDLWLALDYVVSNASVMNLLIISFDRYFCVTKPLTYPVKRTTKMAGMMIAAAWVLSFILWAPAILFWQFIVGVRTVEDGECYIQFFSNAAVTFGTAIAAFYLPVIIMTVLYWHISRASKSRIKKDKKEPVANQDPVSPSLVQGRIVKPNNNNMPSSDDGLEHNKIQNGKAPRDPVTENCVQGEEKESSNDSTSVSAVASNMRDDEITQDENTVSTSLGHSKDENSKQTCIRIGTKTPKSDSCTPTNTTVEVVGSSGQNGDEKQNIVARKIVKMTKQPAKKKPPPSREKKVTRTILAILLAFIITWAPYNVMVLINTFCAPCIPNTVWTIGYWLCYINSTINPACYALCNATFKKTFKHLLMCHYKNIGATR
Description: Calcium mobilization assay, hM2/Gqi5-CHO cells, with EC20 acetylcholine. It is filed as cell-based. The source says: buffer remained in the cell plates. […] After establishment of a […]

Data set [13] concerns the target T2, CYP 2D6. In words: CYP450 inhibition in pooled human liver microsomes, CYP-specific probe substrates. It is filed as in vitro ADME. The note with it: pooled HLM, NADPH, CYP-specific probe substrate.
Data set [14] in a line: Binding in brain homogenate from rat, equilibrium dialysis. Particulars: rat, brain homogenate, rat brain homogenates, read-out: rat fu,brain. The data set is classed as in vitro ADME.
The target in the next data set is T5, human M4 (hM4) (Homo sapiens, UniProt P08173).
T5 sequence (P08173 1-479): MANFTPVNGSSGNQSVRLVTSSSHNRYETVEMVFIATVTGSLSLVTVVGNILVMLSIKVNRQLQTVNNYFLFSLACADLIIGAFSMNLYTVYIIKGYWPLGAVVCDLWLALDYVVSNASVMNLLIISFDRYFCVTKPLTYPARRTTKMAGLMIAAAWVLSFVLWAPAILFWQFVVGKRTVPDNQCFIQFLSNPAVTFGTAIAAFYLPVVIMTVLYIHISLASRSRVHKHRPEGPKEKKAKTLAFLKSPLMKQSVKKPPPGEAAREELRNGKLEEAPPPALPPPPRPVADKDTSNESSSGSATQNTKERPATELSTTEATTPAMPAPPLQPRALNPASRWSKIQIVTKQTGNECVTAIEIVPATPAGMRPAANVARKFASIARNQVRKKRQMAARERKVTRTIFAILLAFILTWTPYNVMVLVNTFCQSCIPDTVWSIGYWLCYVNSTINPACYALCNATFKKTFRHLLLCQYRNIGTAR
Description: Calcium mobilization assay, hM4/Gqi5-CHO cells, with EC20 acetylcholine (PAM). The note with it: hM4/Gqi5-CHO cells, calcium mobilization; for hM4 pEC50 / hM4 %ACh Max: EC20 acetylcholine; for hM4 %ACh Max: maximum response; for pEC50: read-out: hM4 EC50, EC20 fixed concentration of acetylcholine. A general note: Calcium flux is commonly read through the fluorescence of an indicator in the cells.

Data set [15] is described as follows: Intrinsic clearance in rat liver microsomes (substrate depletion), predicted hepatic clearance. It is filed as in vitro ADME. Particulars: for CLint scaled at 1 µM: pH 7.4, rat liver microsomes; for CLhep, rat (predicted hepatic clearance): predicted from rat microsomal CLint.

SMILES strings stand for the structures. pEC50, pIC50: −log10 of the molar value. Where two headings read alike, the source gives them in different places.

For orientation: CLint scaled means a measure of how fast metabolising enzymes remove a compound, apart from limits set by blood flow. By pEC50 is commonly meant −log10 of the EC50, conventionally taken in molar units.

T3 sequence (P11712 whole entry): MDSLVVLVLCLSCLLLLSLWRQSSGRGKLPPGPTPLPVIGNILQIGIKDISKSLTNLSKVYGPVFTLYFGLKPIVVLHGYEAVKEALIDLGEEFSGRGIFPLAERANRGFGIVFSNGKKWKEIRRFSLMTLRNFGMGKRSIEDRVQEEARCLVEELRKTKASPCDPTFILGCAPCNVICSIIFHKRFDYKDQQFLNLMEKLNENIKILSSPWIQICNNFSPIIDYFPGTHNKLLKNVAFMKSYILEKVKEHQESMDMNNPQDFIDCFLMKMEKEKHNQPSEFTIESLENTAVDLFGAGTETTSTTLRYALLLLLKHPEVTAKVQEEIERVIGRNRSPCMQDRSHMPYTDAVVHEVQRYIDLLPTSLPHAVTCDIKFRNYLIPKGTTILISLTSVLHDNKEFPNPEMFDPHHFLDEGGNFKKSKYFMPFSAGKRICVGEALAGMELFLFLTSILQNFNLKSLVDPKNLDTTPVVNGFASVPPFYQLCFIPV
T2 sequence (P10635 whole entry): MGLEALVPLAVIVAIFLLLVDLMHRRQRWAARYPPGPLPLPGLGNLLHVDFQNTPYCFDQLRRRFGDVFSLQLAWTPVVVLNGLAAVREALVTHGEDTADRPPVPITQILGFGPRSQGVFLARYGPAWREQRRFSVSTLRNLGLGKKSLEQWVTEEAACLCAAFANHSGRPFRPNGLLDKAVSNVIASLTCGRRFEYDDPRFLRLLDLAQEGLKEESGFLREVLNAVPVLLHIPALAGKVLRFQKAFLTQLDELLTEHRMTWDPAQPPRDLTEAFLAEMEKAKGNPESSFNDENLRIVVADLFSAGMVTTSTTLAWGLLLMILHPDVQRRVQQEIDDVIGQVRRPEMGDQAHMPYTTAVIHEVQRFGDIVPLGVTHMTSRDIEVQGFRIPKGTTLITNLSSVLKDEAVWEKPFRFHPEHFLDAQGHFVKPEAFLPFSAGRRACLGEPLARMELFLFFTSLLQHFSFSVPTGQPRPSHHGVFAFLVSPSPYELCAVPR

As for `Cc1nc2sc(C(=O)NCc3ccncc3)c(N)c2c(C)c1Cl` [ML253], the pIC50 on CYP 1A2 [1] was 6.92; at CYP 2D6 [2], 6.15; at CYP 2C9 [3], > 7.00.
With `Cc1cc(C)c2c(n1)sc1c(N3CC4(COC4)C3)ncnc12` [VU6007215], in [4], the “fu,plasma (r)” value is given as 0.206. The “rat CLhep” value in data set [5] is recorded as 63 mL/min/kg. The “fu,b (r)” value in [6] is 0.019. Further, the “fu,plasma (h)” value in data set [7] is 0.056.
Take `COc1ccc(CNC(=O)c2sc3nc(C)cc(C)c3c2N)cc1` [VU0152100]: the “fu,plasma (r)” value in data set [4] was 0.011. The “rat CLhep” value in [5] is recorded as 65 mL/min/kg. Moreover, the “fu,b (r)” value in data set [6] is given as 0.045.
On to `Cc1nc2sc3c(NC4CC4)nncc3c2c(C)c1Cl.Cl` [Compound 22i], for which the fraction unbound at 6 h, 5 µM in data set [8] is 0.013; in data set [12], 0.042. Also, the pIC50 was > 7.00 against CYP 1A2 [9], 4.72 at CYP 2C9 [11], 4.54 against CYP 3A4 and 5.10 at CYP 2D6 [13]. For the same compound, the figures for the CLint scaled at 1 µM in data set [10] and in data set [15] were 52 mL/min/kg and 420 mL/min/kg, respectively. The “CLhep, human (predicted hepatic clearance)” value in [10] was 15 mL/min/kg. On human M2 (hM2), the “hM2 EC50” value is “inactive”. Besides, the fraction unbound at 6 h, 1 µM in [14] is 0.011. Also, the “hM4 pEC50” value at human M4 (hM4) is listed as 7.19. Also, at human M4 (hM4), the “hM4 %ACh Max” value stood at 88%. Moreover, the pEC50 on human M4 (hM4) was 7.19. In data set [15], the “CLhep, rat (predicted hepatic clearance)” value is given as 60 mL/min/kg.
On to `Cc1c(Cl)cnc2sc3c(N4CC5(COC5)C4)ncnc3c12` [Compound 15h], for which the fraction unbound at 6 h, 5 µM in [8] was found to be 0.008; in [12], 0.031. Also, the pIC50 was 6.19 at CYP 1A2 [9], < 4.52 at CYP 2C9 [11], < 4.52 against CYP 3A4 and < 4.52 on CYP 2D6 [13]. In addition, the CLint scaled at 1 µM was 147 mL/min/kg in data set [10] and 334 mL/min/kg in data set [15]. For the same compound, the “CLhep, human (predicted hepatic clearance)” value in data set [10] is 18 mL/min/kg. The “hM2 EC50” value on human M2 (hM2) was “inactive”. The fraction unbound at 6 h, 1 µM in [14] came out at 0.003. Also, the “CLhep, rat (predicted hepatic clearance)” value in data set [15] is reported as 58 mL/min/kg.
`Cc1c(Cl)cnc2sc3c(NC4CC4)ncnc3c12` [Compound 15g]: the figures for the fraction unbound at 6 h, 5 µM in data set [8] and in [12] were 0.01 and 0.039, respectively. Besides, the pIC50 on CYP 1A2 [9] was > 7.00; at CYP 2C9 [11] it was < 4.52; on CYP 3A4, 4.61; against CYP 2D6 [13], < 4.52. Besides, the CLint scaled at 1 µM was 57 mL/min/kg in data set [10] and 789 mL/min/kg in data set [15]. The “CLhep, human (predicted hepatic clearance)” value in [10] is 15 mL/min/kg. The pEC50 at human M2 (hM2) was 6.32; at human M4 (hM4), 7.60. In addition, at human M2 (hM2), the “hM2 % ACh Max” value is given as 40%. The fraction unbound at 6 h, 1 µM in [14] was found to be 0.003. Also, the “hM4 pEC50” value at human M4 (hM4) is on record as 7.60. The “hM4 %ACh Max” value on human M4 (hM4) turned out to be 110%. Besides, the “CLhep, rat (predicted hepatic clearance)” value in [15] is 64 mL/min/kg.
With `Cc1nc2sc3c(NC4CCC4)nncc3c2c(C)c1Cl.Cl` [Compound 22j], the fraction unbound at 6 h, 5 µM is 0.005 in data set [8] and 0.026 in data set [12]. In addition, the pIC50 at CYP 1A2 [9] was 6.28; against CYP 2C9 [11] it was < 4.52; against CYP 3A4, < 4.52; on CYP 2D6 [13], 4.72. The CLint scaled at 1 µM is 49 mL/min/kg in data set [10] and 1280 mL/min/kg in data set [15]. In [10], the “CLhep, human (predicted hepatic clearance)” value was 15 mL/min/kg. For the same compound, the pEC50 at human M2 (hM2) is < 5.00. In addition, on human M2 (hM2), the “hM2 % ACh Max” value is listed as 44%. For the same compound, the fraction unbound at 6 h, 1 µM in data set [14] turned out to be 0.006. In addition, the “CLhep, rat (predicted hepatic clearance)” value in data set [15] was 66 mL/min/kg.
`Cc1nc2sc3c(NC4CC(F)(F)C4)nncc3c2c(C)c1Cl.Cl` [Compound 22k]: the values for the fraction unbound at 6 h, 5 µM in data set [8] and in data set [12] were 0.01 and 0.057, respectively. Also, the pIC50 on CYP 1A2 [9] is 6.01; against CYP 2C9 [11] it was < 4.52; at CYP 3A4, < 4.52; on CYP 2D6 [13] it was 4.60. In addition, the CLint scaled at 1 µM in data set [10] is 185 mL/min/kg; in data set [15], 1670 mL/min/kg. The “CLhep, human (predicted hepatic clearance)” value in [10] was 19 mL/min/kg. For the same compound, the pEC50 on human M2 (hM2) is 6.59. On human M2 (hM2), the “hM2 % ACh Max” value was determined as 49%. For the same compound, in data set [14], the fraction unbound at 6 h, 1 µM is 0.008. Besides, the “CLhep, rat (predicted hepatic clearance)” value in data set [15] is reported as 67 mL/min/kg.
